Measured values published in ChEMBL document CHEMBL1201862, “PubChem BioAssay data set” (2004).
Active and inactive are the calls of the source.

Columns and labels:
Cytochrome P450 2D6 = Cytochrome P450 2D6 (Homo sapiens, UniProt P10635); test: qHTS Assay for Inhibitors and Substrates of Cytochrome P450 2D6. [Related pubchem assays: 410 ]; assay type: ADME; conditions: read-out: Potency
[1] = target: T1, Neuropeptide Y receptor type 1 (Homo sapiens, UniProt P25929); assay type: functional;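 also: HEK293 cells with a CNG channel challenged with NPY then isoproterenol; potency as antagonist that reverses NPY suppression of cAMP signal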
T1 sequence (P25929 whole entry): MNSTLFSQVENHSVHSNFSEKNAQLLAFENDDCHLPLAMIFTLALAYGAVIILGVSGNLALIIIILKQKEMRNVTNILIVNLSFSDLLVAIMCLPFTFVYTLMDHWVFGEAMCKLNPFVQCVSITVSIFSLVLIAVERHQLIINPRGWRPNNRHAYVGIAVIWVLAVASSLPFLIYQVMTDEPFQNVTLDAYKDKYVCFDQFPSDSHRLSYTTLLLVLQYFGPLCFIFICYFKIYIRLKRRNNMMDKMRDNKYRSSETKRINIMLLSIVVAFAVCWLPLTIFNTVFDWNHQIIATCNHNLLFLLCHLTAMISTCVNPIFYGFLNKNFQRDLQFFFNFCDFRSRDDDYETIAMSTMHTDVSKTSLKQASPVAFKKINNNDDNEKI

[2] = target: T2, Neuropeptide Y receptor type 2 (Homo sapiens, UniProt P49146); assay type: functional, cell-based;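 also: HEK293 cells expressing the receptor and a CNG channel; stimulus was NPY near EC95 followed by isoproterenol to raise cAMP; antagonist potency measured as restoring cAMP signal that NPY suppresses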
T2 sequence (P49146 whole entry): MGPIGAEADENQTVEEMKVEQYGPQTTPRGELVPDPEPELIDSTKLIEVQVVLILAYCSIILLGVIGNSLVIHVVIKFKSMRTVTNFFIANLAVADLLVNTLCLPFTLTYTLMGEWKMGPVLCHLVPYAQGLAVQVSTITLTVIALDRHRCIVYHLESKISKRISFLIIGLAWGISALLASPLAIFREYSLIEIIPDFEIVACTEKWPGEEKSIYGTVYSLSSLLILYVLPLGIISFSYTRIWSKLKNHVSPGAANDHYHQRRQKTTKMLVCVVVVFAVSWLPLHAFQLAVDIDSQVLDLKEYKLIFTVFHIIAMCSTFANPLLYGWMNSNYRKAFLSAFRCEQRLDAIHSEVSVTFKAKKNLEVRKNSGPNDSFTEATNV

HeLa = test: viability loss in HeLa cells – cell-based, 24 h, cherry-picked samples, cytotoxicity control, dose response (AID 504726); assay type: functional; conditions: Homo sapiens;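 also: potency for cytotoxicity as loss of luminescence signal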
NS3 = NS3 (Hepatitis C virus, UniProt A3EZJ3); test: PubChem AID 2173; set-up: species or system Hepacivirus hominis
[3] = HPDE-C7 pancreatic duct cell viability loss – fluorescence, HTS (AID 430); assay type: functional, cell-based; conditions: Homo sapiens
[4] = viability loss of HPDE-C7K cells – cell-based, fluorescence, HTS, primary screen (AID 431); assay type: functional; conditions: Homo sapiens
Insulin-degrading enzyme [5] = target: T3, Insulin-degrading enzyme (Homo sapiens, UniProt P14735); test: cellular IDE activation of Abeta substrate cleavage – fluorescence polarization, HEK cells, dose response (AID 588439); assay type: functional, cell-based
T3 sequence (P14735 whole entry): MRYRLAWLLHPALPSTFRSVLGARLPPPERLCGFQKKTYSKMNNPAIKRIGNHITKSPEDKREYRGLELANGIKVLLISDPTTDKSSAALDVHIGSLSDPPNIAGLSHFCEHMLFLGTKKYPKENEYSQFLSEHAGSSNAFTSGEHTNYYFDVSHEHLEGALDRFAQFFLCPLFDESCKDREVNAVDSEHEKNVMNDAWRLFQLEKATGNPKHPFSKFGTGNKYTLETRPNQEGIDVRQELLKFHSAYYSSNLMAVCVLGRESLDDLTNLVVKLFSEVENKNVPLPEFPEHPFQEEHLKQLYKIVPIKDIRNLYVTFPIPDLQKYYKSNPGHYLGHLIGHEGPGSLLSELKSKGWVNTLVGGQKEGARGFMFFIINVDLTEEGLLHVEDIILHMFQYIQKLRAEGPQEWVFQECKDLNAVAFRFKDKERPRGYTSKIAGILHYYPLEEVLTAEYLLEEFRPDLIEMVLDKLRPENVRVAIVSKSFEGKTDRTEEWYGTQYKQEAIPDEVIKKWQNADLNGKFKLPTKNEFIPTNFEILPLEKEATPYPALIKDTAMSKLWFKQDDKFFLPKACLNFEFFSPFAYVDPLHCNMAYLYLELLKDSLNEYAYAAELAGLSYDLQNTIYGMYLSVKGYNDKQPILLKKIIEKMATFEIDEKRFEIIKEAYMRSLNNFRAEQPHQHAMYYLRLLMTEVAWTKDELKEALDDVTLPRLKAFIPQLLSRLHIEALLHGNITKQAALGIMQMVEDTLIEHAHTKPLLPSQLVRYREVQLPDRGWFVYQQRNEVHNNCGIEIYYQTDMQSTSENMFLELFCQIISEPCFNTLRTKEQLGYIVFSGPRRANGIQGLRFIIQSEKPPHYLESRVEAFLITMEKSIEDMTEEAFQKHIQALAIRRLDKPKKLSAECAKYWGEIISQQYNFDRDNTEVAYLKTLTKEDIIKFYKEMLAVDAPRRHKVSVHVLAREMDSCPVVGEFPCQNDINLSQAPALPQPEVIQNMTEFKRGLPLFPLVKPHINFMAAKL

Insulin-degrading enzyme [6] = target: T3, Insulin-degrading enzyme; test: recombinant IDE activation, cell-free – biochemical, fluorescence polarization, counter-screen for IDE activator project, dose response (AID 588681)
Beta-lactamase [7] = target: Beta-lactamase (Salmonella choleraesuis (strain SC-B67), UniProt Q5J463)
HEK293 [8] = test: optical interference in Abeta FP readout, dose response, artefact control for IDE activator project, biochemical, fluorescence polarization (AID 588442); assay type: functional, cell-based; conditions: Homo sapiens
[9] = target: E3 ubiquitin-protein ligase XIAP (Homo sapiens, UniProt P98170); test: Counter Screen using XIAP-Bir3 for Chemical Antagonists of Bir1/2 domains of IAP-family anti-apoptotic proteins. [Related pubchem assays (depositor defined):AID1018, AID1449, AID1514, AID1638, AID1749, AID1750, AID488957, AID488963]
HEK293 [10] = test: membrane integrity loss in HEK cells – cell-based, fluorescence, cytotoxicity control for IDE activator project, dose response (AID 588440); assay type: functional; conditions: Homo sapiens;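 also: cytotoxicity by LDH release measuring loss of membrane integrity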
Beta-lactamase [11] = target: Beta-lactamase (Pseudomonas aeruginosa, UniProt Q79MP6);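 also: biochemical dose-response test of metallo-beta-lactamase enzyme inhibition, read out by epi-absorbance; purified recombinant IMP-1 metallo-beta-lactamase with nitrocefin as substrate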
[12] = target: Melanin-concentrating hormone receptor 1 (Homo sapiens, UniProt Q99705); test: Fluorescence-based counterscreen for antagonists of the G-protein coupled receptor 7 (GPR7): cell-based high throughput dose response assay to identify antagonists of the melanin-concentrating hormone receptor 1 (MCHR1).; assay type: functional
[13] = target: T4, Neuropeptides B/W receptor type 1 (Homo sapiens, UniProt P48145); test: Fluorescence-based dose response cell-based high throughput screening assay to identify antagonists of the G-protein coupled receptor 7 (GPR7). [Related pubchem assays: 1952 (Screening assay (GPR7 antagonists).), 1880 (Summary AID.)]; assay type: functional
T4 sequence (P48145 whole entry): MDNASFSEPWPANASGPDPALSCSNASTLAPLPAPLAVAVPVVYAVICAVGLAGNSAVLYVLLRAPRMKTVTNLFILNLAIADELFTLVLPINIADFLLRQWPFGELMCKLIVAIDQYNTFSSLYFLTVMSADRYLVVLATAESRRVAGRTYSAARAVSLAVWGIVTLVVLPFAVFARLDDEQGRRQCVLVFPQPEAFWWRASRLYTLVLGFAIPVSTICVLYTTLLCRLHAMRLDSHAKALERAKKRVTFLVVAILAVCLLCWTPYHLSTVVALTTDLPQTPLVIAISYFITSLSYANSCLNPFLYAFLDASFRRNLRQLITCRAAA

Chain of NS3 (A3EZJ3 whole entry): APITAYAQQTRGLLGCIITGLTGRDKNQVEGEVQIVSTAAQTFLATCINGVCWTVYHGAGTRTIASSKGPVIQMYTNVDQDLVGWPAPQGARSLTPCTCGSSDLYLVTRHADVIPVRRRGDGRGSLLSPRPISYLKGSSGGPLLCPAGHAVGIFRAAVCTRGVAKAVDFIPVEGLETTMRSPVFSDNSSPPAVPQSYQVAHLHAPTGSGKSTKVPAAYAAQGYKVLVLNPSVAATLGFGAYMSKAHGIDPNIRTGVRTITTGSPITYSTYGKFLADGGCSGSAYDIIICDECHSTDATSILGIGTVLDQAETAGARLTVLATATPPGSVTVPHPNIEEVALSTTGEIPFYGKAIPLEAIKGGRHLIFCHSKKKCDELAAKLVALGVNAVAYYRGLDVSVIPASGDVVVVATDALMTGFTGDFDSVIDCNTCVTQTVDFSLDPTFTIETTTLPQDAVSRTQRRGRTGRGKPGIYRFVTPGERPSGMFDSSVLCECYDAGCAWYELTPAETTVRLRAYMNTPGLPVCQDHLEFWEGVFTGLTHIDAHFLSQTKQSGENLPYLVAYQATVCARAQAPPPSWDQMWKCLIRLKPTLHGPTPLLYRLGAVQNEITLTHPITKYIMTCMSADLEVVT
Chain of Beta-lactamase (Pseudomonas aeruginosa, UniProt Q79MP6) (Q79MP6 whole entry): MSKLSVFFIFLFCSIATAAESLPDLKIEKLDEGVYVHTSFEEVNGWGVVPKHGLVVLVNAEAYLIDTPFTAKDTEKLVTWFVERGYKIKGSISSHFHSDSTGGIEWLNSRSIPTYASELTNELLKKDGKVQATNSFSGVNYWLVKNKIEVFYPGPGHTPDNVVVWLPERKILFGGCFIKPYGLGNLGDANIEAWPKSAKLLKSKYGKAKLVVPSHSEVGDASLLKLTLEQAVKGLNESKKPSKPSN
Chain of E3 ubiquitin-protein ligase XIAP (P98170 whole entry): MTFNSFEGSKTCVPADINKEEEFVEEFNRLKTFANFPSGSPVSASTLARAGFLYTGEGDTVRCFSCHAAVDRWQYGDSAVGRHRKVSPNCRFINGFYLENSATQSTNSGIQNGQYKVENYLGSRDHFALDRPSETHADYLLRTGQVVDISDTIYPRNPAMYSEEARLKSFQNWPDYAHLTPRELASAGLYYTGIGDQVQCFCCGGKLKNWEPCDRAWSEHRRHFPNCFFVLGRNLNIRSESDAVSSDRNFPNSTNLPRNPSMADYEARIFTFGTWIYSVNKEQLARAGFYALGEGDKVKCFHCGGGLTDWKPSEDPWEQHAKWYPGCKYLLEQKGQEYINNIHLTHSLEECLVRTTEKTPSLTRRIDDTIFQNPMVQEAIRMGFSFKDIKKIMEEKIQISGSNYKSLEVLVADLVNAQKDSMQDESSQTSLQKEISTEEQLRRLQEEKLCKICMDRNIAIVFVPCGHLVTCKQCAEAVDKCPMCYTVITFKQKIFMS
Chain of Melanin-concentrating hormone receptor 1 (Q99705 whole entry): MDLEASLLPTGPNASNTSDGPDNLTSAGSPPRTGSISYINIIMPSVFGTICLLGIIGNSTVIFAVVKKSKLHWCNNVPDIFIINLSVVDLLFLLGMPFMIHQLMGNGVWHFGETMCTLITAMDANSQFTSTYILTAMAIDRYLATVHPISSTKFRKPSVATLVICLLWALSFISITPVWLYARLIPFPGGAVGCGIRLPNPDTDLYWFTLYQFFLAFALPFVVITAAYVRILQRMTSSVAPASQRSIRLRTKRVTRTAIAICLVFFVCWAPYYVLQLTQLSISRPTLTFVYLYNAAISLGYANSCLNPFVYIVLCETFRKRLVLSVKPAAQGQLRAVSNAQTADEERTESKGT
Chain of Cytochrome P450 2D6 (P10635 whole entry): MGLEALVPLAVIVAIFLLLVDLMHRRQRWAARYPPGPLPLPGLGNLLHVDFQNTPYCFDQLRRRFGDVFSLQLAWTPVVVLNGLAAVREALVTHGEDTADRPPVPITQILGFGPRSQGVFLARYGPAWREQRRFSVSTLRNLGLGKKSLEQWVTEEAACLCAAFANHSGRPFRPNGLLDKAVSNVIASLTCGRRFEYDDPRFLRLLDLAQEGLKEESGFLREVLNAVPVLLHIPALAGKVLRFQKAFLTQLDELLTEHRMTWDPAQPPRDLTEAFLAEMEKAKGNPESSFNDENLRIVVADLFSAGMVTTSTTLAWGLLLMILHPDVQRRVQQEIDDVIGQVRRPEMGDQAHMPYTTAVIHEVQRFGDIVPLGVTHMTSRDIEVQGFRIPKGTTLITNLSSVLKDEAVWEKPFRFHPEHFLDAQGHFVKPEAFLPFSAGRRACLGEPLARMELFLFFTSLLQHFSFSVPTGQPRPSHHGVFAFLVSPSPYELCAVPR
Chain of Beta-lactamase (Salmonella choleraesuis (strain SC-B67), UniProt Q5J463) (Q5J463 whole entry): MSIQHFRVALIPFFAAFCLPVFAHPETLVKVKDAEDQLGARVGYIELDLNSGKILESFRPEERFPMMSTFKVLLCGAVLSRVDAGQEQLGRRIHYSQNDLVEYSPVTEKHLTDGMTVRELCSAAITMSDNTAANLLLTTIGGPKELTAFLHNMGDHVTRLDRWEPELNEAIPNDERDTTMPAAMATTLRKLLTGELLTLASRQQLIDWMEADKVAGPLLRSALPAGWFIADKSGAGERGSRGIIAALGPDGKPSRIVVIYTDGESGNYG

## COC(=O)C1C(C)OC(=O)NC1c1ccccc1 (configuration not stated)
Cytochrome P450 2D6
  AC50: 3.16 µM (inconclusive)

## Nn1c(Cc2cccc3ccccc23)nnc1SCc1c(Cl)cccc1Cl
[1]
  IC50: 5.1 µM (active)
[2]
  IC50: 4.3 µM (active)

## O=C(/C=C/c1ccco1)Nc1ccccc1C(=O)Nc1cccc(C(=O)O)c1
HeLa
  AC50: 180 µM (active)

## O=C(c1ccc2nc(-c3ccco3)c(-c3ccco3)nc2c1)N1CCN(c2ccccc2)CC1
NS3
  IC50: 19.7 µM (not active)
[3]
  EC50: 18 µM (active)
[4]
  EC50: > 20 µM (not active)

## O=c1ccc2c(-c3ccccc3)c3ccc(O)cc3oc-2c1
Insulin-degrading enzyme [5]
  EC50: > 54.6 µM (inactive)
Insulin-degrading enzyme [6]
  EC50: > 54.6 µM (inactive)
Beta-lactamase [7]
  IC50: 0.19 µM (active)
NS3
  IC50: 7.38 µM (active)
HEK293 [8]
  EC50: > 54.6 µM (inactive)
[9]
  IC50: > 20 µM (inactive)
HEK293 [10]
  IC50: > 89.1 µM (inactive)
Beta-lactamase [11]
  IC50: 0.399 µM (active)

## N=c1c(C(=O)NCCc2ccccc2)cc2c(=O)n3ccccc3nc2n1CC1CCCO1 (configuration not stated)
[12]
  IC50: 158 µM (not active)
[13]
  IC50: > 43.8 µM (not active)
